Data: ChEMBL document CHEMBL3091452, “A prodrug approach toward cancer-related carbonic anhydrase inhibition” (J Med Chem, 2013)

What was measured:
Carbonic anhydrase 9 = Carbonic anhydrase 9 (Homo sapiens, UniProt Q16790)
Description: Inhibition of human carbonic anhydrase 9 by stopped-flow CO2 hydration assay

[1] = Permeability of the compound in human Caco2 cells assessed as mass balance in diffusion chamber at 15 uM after 90 mins; assay type: ADME, cell-based; settings: Caco-2, read-out: permeability
Albumin = Albumin (Homo sapiens, UniProt P02768); experiment: Binding affinity to human serum albumin by chromatographic analysis; assay type: ADME; settings: isolated protein
Chain of Albumin (P02768 whole entry): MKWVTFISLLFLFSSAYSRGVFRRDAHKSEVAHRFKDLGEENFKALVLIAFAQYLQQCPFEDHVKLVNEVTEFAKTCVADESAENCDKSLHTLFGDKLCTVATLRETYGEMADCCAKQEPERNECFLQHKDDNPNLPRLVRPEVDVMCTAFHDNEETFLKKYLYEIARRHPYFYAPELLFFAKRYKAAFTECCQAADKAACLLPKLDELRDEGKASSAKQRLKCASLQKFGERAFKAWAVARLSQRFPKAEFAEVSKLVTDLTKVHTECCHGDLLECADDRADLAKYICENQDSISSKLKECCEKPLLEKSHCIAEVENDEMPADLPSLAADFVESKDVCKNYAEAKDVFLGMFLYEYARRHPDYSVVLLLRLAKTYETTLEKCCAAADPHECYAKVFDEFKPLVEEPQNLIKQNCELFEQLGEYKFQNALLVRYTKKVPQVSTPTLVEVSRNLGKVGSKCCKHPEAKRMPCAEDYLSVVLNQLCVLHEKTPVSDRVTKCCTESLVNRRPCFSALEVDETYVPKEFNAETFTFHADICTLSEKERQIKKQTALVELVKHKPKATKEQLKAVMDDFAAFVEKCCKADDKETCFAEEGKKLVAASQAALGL

[2] = Degradation half life in human plasma at 5000 ng/mL by UPLC-MS analysis; assay type: ADME, cell-free
Carbonic anhydrase 14 = Carbonic anhydrase 14 (Homo sapiens, UniProt Q9ULX7); experiment: Inhibition of human carbonic anhydrase 14 by stopped-flow CO2 hydration assay
Chain of Carbonic anhydrase 14 (Q9ULX7 whole entry): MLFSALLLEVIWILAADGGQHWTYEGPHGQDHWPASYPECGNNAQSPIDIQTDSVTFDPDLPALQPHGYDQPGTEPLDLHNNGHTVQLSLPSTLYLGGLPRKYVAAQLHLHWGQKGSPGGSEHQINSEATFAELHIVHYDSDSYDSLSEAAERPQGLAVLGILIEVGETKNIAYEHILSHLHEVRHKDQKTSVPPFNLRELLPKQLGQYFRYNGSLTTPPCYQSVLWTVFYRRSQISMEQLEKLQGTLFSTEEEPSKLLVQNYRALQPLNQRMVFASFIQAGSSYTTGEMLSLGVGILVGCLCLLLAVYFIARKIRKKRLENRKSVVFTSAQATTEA

Carbonic anhydrase 12 = Carbonic anhydrase 12 (Homo sapiens, UniProt O43570)
Chain of Carbonic anhydrase 12 (O43570 whole entry, the tested form may be a part): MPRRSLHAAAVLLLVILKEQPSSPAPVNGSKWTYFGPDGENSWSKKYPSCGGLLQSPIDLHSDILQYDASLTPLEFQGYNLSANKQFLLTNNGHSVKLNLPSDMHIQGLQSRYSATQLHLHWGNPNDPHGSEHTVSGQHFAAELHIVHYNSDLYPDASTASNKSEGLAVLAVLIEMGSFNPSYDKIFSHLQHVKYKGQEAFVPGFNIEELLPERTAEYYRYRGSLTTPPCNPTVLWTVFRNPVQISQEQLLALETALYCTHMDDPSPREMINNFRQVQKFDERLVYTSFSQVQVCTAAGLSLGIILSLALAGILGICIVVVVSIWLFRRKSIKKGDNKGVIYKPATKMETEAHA
Description: Inhibition of human carbonic anhydrase 12 by stopped-flow CO2 hydration assay

[3] = Permeability of the compound in human Caco2 cells assessed as mass balance in diffusion chamber at 20 uM after 90 mins; assay type: ADME, cell-based; settings: Caco-2, read-out: permeability
[4] = Intrinsic clearance in human liver microsomes at 1 uM after 2 to 60 mins by LCMS analysis in absence of NADPH; assay type: ADME; settings: read-out: CLH
[5] = Intrinsic clearance in human liver microsomes at 1 uM after 2 to 60 mins by LCMS analysis in presence of NADPH; assay type: ADME; settings: read-out: CLH
Carbonic anhydrase 1 = Carbonic anhydrase 1 (Homo sapiens, UniProt P00915)
Chain of Carbonic anhydrase 1 (P00915 whole entry): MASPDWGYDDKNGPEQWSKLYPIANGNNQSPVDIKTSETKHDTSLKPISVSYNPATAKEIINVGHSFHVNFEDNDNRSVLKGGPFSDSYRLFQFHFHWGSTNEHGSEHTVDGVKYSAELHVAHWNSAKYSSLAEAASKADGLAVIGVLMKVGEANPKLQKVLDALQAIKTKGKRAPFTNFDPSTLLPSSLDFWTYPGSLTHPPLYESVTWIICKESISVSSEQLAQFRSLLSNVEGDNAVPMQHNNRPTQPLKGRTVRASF
Description: Inhibition of human carbonic anhydrase 1 by stopped-flow CO2 hydration assay

Carbonic anhydrase 2 = Carbonic anhydrase 2 (Homo sapiens, UniProt P00918)
Description: Inhibition of human carbonic anhydrase 2 by stopped-flow CO2 hydration assay

[6] = Solubility of the compound in HEPES buffer at pH 7.4; assay type: physicochemical
[7] = Permeability of the compound in human Caco2 cells assessed as mass balance in diffusion chamber at 8 uM after 90 mins; assay type: ADME, cell-based; settings: Caco-2, read-out: permeability

SMILES | Ki (Carbonic anhydrase 9) [µM] | Ki (Carbonic anhydrase 14) [µM] | Ki (Carbonic anhydrase 12) [µM] | Ki (Carbonic anhydrase 1) [µM] | Ki (Carbonic anhydrase 2) [µM] | further results
C#Cc1cccc(S(N)(=O)=O)c1 | 0.0657 | – | – | – | – | –
CC(=O)OC[C@H]1O[C@@H](n2cc(-c3ccc(S(N)(=O)=O)cc3)nn2)[C@H](OC(C)=O)[C@@H](OC(C)=O)[C@@H]1OC(C)=O | – | 0.104 | 0.0671 | – | – | recovery at 1.5 h, 15 µM [1]: 81%; Activity (Albumin): 30%; half-life at 5000 ng/mL [2]: 7 min
NS(=O)(=O)c1ccc(-c2cn([C@@H]3O[C@H](CO)[C@@H](O)[C@H](O)[C@H]3O)nn2)cc1 | – | 0.0503 | 0.0401 | – | – | recovery at 1.5 h, 20 µM [3]: 100%; microsomal CLint at 1 µM [4]: < 7 µL/min/mg; microsomal CLint at 1 µM [5]: < 7 µL/min/mg; Activity (Albumin): 13%; half-life at 5000 ng/mL [2]: > 250 min
NS(=O)(=O)c1ccc(-c2cn([C@@H]3O[C@H](CO)[C@H](O)[C@H](O)[C@H]3O)nn2)cc1 | 0.126 | 0.0201 | 0.0363 | 7.95 | 0.0067 | –
C#Cc1ccc(S(N)(=O)=O)cc1 | 0.054 | – | – | – | – | –
CC(C)CC(=O)OC[C@H]1O[C@@H](n2cc(-c3cccc(S(N)(=O)=O)c3)nn2)[C@H](OC(=O)CC(C)C)[C@@H](OC(=O)CC(C)C)[C@H]1OC(=O)CC(C)C | 0.254 | – | – | – | – | –
CCCCC(=O)OC[C@H]1O[C@@H](n2cc(-c3cccc(S(N)(=O)=O)c3)nn2)[C@H](OC(=O)CCCC)[C@@H](OC(=O)CCCC)[C@H]1OC(=O)CCCC | 0.8 | – | – | – | – | –
CCCC(=O)OC[C@H]1O[C@@H](n2cc(-c3cccc(S(N)(=O)=O)c3)nn2)[C@H](OC(=O)CCC)[C@@H](OC(=O)CCC)[C@H]1OC(=O)CCC | 0.0692 | – | – | – | – | –
CCC(=O)OC[C@H]1O[C@@H](n2cc(-c3cccc(S(N)(=O)=O)c3)nn2)[C@H](OC(=O)CC)[C@@H](OC(=O)CC)[C@H]1OC(=O)CC | 0.126 | – | – | – | – | –
CC(=O)OC[C@H]1O[C@@H](n2cc(-c3cccc(S(N)(=O)=O)c3)nn2)[C@H](OC(C)=O)[C@@H](OC(C)=O)[C@H]1OC(C)=O | 0.943 | – | – | – | – | –
NS(=O)(=O)c1cccc(-c2cn([C@@H]3O[C@H](CO)[C@H](O)[C@H](O)[C@H]3O)nn2)c1 | 0.59 | – | – | – | – | –
CC(C)CC(=O)OC[C@H]1O[C@@H](n2cc(-c3ccc(S(N)(=O)=O)cc3)nn2)[C@H](OC(=O)CC(C)C)[C@@H](OC(=O)CC(C)C)[C@H]1OC(=O)CC(C)C | 0.374 | 0.0159 | 0.0233 | 3.21 | 0.0379 | –
CCCCC(=O)OC[C@H]1O[C@@H](n2cc(-c3ccc(S(N)(=O)=O)cc3)nn2)[C@H](OC(=O)CCCC)[C@@H](OC(=O)CCCC)[C@H]1OC(=O)CCCC | – | 0.0673 | 0.031 | 2.13 | 0.0736 | –
CCCC(=O)OC[C@H]1O[C@@H](n2cc(-c3ccc(S(N)(=O)=O)cc3)nn2)[C@H](OC(=O)CCC)[C@@H](OC(=O)CCC)[C@H]1OC(=O)CCC | – | 0.0356 | 0.0095 | 0.257 | 0.0069 | –
CCC(=O)OC[C@H]1O[C@@H](n2cc(-c3ccc(S(N)(=O)=O)cc3)nn2)[C@H](OC(=O)CC)[C@@H](OC(=O)CC)[C@H]1OC(=O)CC | 0.0051 | 0.0109 | 0.0054 | 0.0788 | 0.0081 | –
CC(C)CC(=O)OC[C@H]1O[C@@H](n2cc(-c3cccc(S(N)(=O)=O)c3)nn2)[C@H](OC(=O)CC(C)C)[C@@H](OC(=O)CC(C)C)[C@@H]1OC(=O)CC(C)C | 0.724 | – | – | – | – | –
CCCCC(=O)OC[C@H]1O[C@@H](n2cc(-c3cccc(S(N)(=O)=O)c3)nn2)[C@H](OC(=O)CCCC)[C@@H](OC(=O)CCCC)[C@@H]1OC(=O)CCCC | 0.402 | – | – | – | – | –
CCCC(=O)OC[C@H]1O[C@@H](n2cc(-c3cccc(S(N)(=O)=O)c3)nn2)[C@H](OC(=O)CCC)[C@@H](OC(=O)CCC)[C@@H]1OC(=O)CCC | 0.583 | – | – | – | – | –
CC(=O)OC[C@H]1O[C@@H](n2cc(-c3cccc(S(N)(=O)=O)c3)nn2)[C@H](OC(C)=O)[C@@H](OC(C)=O)[C@@H]1OC(C)=O | 0.48 | – | – | – | – | –
CCC(=O)OC[C@H]1O[C@@H](n2cc(-c3cccc(S(N)(=O)=O)c3)nn2)[C@H](OC(=O)CC)[C@@H](OC(=O)CC)[C@@H]1OC(=O)CC | 0.874 | – | – | – | – | –
CC(C)CC(=O)OC[C@H]1O[C@@H](n2cc(-c3ccc(S(N)(=O)=O)cc3)nn2)[C@H](OC(=O)CC(C)C)[C@@H](OC(=O)CC(C)C)[C@@H]1OC(=O)CC(C)C | 0.426 | 0.0401 | 0.052 | 9.44 | 0.44 | solubility [6]: Insoluble; microsomal CLint at 1 µM [4]: < 7 µL/min/mg; microsomal CLint at 1 µM [5]: < 7 µL/min/mg; Activity (Albumin): > 99%; half-life at 5000 ng/mL [2]: > 250 min
CCCCC(=O)OC[C@H]1O[C@@H](n2cc(-c3ccc(S(N)(=O)=O)cc3)nn2)[C@H](OC(=O)CCCC)[C@@H](OC(=O)CCCC)[C@@H]1OC(=O)CCCC | – | 0.176 | 0.0527 | 9.23 | 0.573 | solubility [6]: Insoluble; microsomal CLint at 1 µM [4]: < 7 µL/min/mg; microsomal CLint at 1 µM [5]: < 7 µL/min/mg; Activity (Albumin): > 99%; half-life at 5000 ng/mL [2]: > 250 min
CCCC(=O)OC[C@H]1O[C@@H](n2cc(-c3ccc(S(N)(=O)=O)cc3)nn2)[C@H](OC(=O)CCC)[C@@H](OC(=O)CCC)[C@@H]1OC(=O)CCC | 0.633 | 0.119 | 0.0502 | 1.8 | 0.0763 | solubility [6]: Insoluble; Activity (Albumin): 94%; half-life at 5000 ng/mL [2]: 25 min
CCC(=O)OC[C@H]1O[C@@H](n2cc(-c3ccc(S(N)(=O)=O)cc3)nn2)[C@H](OC(=O)CC)[C@@H](OC(=O)CC)[C@@H]1OC(=O)CC | 0.475 | 0.256 | 0.0074 | 2.02 | 0.0711 | recovery at 1.5 h, 8 µM [7]: 47%; Activity (Albumin): 77%; half-life at 5000 ng/mL [2]: 3 min
CC(=O)OC[C@H]1O[C@@H](n2cc(-c3ccc(S(N)(=O)=O)cc3)nn2)[C@H](OC(C)=O)[C@@H](OC(C)=O)[C@H]1OC(C)=O | – | 0.0158 | 0.0097 | – | – | –
